System: SKBR3 (breast cancer cell line)
Experiment: In vitro cell killing activity of ADCs, SKBR3
Assay type: cell-based
Conditions: Homo sapiens, SK-BR-3, incubation 72 hours, ADC DAR 8.0
From the text: Referring to the process of Example 13, the linker-drug conjugate mc-AAN-Exatecan was conjugated to a HER2 antibody, an EGFR antibody, and a non-specific binding antibody (Anti-HEL) respectively to prepare the corresponding ADCs. […] The cell killing activity was detected.

CC[C@@]1(O)C(=O)OCc2c1cc1n(c2=O)Cc2c-1nc1cc(F)c(C)c3c1c2[C@@H](N)CC3 [Extecan, Exatecan]
IC50: 2.02 nM

Source: patent publication EP4659764A1, “LINKER DRUG, AND PREPARATION METHOD AND USE OF ANTIBODY-DRUG CONJUGATE THEREOF” (Lepu Biopharma Co., Ltd., priority 2023, dated 2024)
